Measured values published in patent publication US20250367321A1, “COMPOSITIONS AND METHODS INVOLVING ADGRG6” (The Regents of the University of California, priority 2022, published 2025).

Tests used:
adenyl cyclase (AC) = assay: cAMP levels after treatment with the AC inhibitor; type: cell-based, human; conditions: for cAMP levels upon aAdo treatment: basal condition
Description: (§1) CAMP is a well-known signaling molecule that initiates adipogenesis by increasing protein kinase A (pKA), which then phosphorylates early transcription factors, including C/EBPb. To test whether ADGRG6 might increase cAMP levels in preadipocytes, we measured CAMP levels in WT and ADGRG6 KO human preadipocytes in both basal condition and forskolin which is […], using ELISA. […] We also measured cAMP levels in human preadipocytes that overexpress ADGRG6. […] In order to test whether ADGRG6 can directly affect cAMP levels via adenyl cyclase (AC), that converts ATP to CAMP, we treated ADGRG6 overexpressing preadipocytes with 2′,5′-Dideoxyadenosine (aAdo), an inhibitor of AC. In the basal condition, cAMP levels were reduced in both WT and ADGRG6 overexpressing cells upon aAdo treatment (FIG. 4A). […] Furthermore, we also examined the downstream target of CAMP-PKA, CREB phosphorylation. […] In the stimulated condition, p-CREB increased in WT cells but not in ADGRG6 KO cells (FIG. 4B).

human preadipocytes = assay: cAMP levels by ELISA, basal or forskolin-stimulated; type: cell-based; conditions: WT human preadipocytes, forskolin treatment
Description: as §1

Compound | cAMP levels upon aAdo treatment (adenyl cyclase (AC); ADGRG6 overexpressing preadipocytes) | increase of cAMP levels in ADGRG6 overexpressing preadipocytes compared to WT (adenyl cyclase (AC); Ado stimulated condition) | cAMP levels upon aAdo treatment (adenyl cyclase (AC); WT preadipocytes) | increase in cAMP levels compared to the basal condition (human preadipocytes)
C[C@H]1O[C@@H](n2cnc3c(N)ncnc32)C[C@@H]1O [aAdo, 2′,5′-Dideoxyadenosine] | reduced | 25% | reduced | 
C=C[C@@]1(C)CC(=O)[C@]2(O)[C@@]3(C)[C@@H](O)CCC(C)(C)[C@@H]3[C@H](O)[C@H](OC(C)=O)[C@@]2(C)O1 [forskolin] |  |  |  | 2 fold
